The target of one test is T1, sGC enzyme (Homo sapiens, UniProt Q02108+Q02153).
T1 construct: sGC enzyme activity values in HEK cells, determined by the GloSensor assay; host or cells: HEK293 cells stably expressing GloSensor 40F cGMP biosensor
T1 sequence (Q02153 1-619): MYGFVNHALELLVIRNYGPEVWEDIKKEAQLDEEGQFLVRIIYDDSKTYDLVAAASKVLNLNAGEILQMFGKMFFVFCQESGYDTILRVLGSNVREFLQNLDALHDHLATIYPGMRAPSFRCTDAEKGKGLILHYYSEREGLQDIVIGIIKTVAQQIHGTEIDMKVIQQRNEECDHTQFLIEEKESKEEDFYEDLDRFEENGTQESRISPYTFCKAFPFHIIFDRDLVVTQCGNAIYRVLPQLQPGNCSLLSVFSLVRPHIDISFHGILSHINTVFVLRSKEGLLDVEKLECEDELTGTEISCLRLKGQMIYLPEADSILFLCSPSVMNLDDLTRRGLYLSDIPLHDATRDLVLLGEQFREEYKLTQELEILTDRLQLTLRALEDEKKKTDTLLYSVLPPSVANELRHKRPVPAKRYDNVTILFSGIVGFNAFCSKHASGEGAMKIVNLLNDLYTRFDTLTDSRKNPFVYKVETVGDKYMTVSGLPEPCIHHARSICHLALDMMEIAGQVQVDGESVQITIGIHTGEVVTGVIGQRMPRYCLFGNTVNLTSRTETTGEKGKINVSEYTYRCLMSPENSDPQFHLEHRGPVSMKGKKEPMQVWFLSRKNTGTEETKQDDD
T1 sequence (Q02108 1-690): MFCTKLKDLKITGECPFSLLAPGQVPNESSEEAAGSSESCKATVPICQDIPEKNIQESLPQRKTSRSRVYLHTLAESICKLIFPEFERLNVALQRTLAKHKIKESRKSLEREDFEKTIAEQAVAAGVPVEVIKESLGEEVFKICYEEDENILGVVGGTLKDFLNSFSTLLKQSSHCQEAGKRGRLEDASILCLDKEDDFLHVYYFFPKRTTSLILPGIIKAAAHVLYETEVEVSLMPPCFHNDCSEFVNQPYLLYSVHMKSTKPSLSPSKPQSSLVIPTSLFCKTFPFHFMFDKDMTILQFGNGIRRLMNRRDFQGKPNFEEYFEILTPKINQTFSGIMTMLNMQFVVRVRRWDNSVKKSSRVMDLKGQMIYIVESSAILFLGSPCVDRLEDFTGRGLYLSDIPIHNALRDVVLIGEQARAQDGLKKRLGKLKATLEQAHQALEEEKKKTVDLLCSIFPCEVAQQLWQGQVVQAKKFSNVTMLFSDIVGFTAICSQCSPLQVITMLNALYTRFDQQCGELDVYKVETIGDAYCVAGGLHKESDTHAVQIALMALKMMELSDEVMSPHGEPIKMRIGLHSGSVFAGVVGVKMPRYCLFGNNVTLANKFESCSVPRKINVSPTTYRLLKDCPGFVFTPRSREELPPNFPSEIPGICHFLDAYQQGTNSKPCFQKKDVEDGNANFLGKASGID
The experiment in a line: cGMP GloSensor cell-based assay, 384-well format (Example 2a). The following applies: HEK293 GloSensor 40F cGMP cells; 10 μM DETA-NONOate; 50% of high control (30 μM Compound Y); read-out: Abs EC50. An outline of the steps:
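HEK293 cells expressing GloSensor 40F cGMP biosensor, pre-equilibrated with GloSensor substrate 90 min at 25 °C, then given compound (final 0.029–30000 nM) plus 10 μM DETA-NONOate; luminescence read after 55 min at room temperature. Normalized to 1% DMSO (low) and 30 μM Compound Y (high); Abs EC50 from 4-parameter fit, n=2, geometric mean.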

Test [1] relates to cGMP in rat primary neurons. The test is described as follows: cGMP neuronal cell-based assay (Example 3). The settings on record: Primary neuron; rat primary hippocampal neurons; 30 μM DETA-NO; cGMP by LC-MS/MS; 50% of high control (10 μM Compound Y); read-out: Abs EC50. The method, then: Rat primary neurons were isolated from fetuses of 18-day pregnant Sprague-Dawley females. The fetuses were collected in Hanks' balanced salt solution (HBSS) and brains were rapidly removed. The cerebral hippocampi were isolated and mechanically fragmented. Further tissue digestion was performed with 0.25% (wt/vol) trypsin solution in HBSS without Ca2+ and Mg2+ for 15 min at 37° C. After trypsination, cells were washed and resuspended in neurobasal medium supplemented with 0.5 mM L-glutamine, 12.5 uM glutamic acid, 2% B-27 and 100 U/mL penicillin, and 100 μg/mL streptomycin. Cells were plated at a density of 4×10^4 cells/well in a poly-D-lysine coated 384-well flat clear-bottom plate (Corning Cat No 354662). Cells were incubated 6-7 days at 37° C. in a humidified chamber with 5% CO2. Media was removed and cells were washed 1× with HBSS containing Ca2+ and Mg2+, and replaced with 40 uL HBSS containing 0.5 mM IBMX, and incubated for 15 minutes at 37° C. 10 uL of a 5× stock of test compounds with diethylenetriamine NONOate (DETA-NO) was added. Final concentration of DETA-NO was 30 μM. Cells were incubated for 20 min at 37° C. Medium was removed, 50 uL of ice-cold 10% acetic acid was added, and incubated for 60 minutes at 4° C. Following centrifugation at 4° C. for 5 minutes at 1000×g to pellet cell debris, the supernatant was aspirated to a clean plate and the samples were analyzed for cGMP content. cGMP concentrations were determined from each sample using LC-MS/MS.
Data were normalized to a high control using the following equation: 100*(Sample−Low Control)/(High Control−Low Control), where the low control is the average of 15 samples treated with 1% DMSO, and the high control is the average of 15 samples treated with 10 μM a known sGC stimulator Compound Y. Data were fit using a 4-parameter fit (log(agonist) vs. response—variable slope) using GraphPad Prism Software v.5. n=2 for all compounds. The Absolute EC50 was interpolated from the curve fit and is defined as the concentration at which a given compound elicits 50% of the high control response. Compounds failing to elicit a minimum response of 50% are reported as >30 μM. For compounds run in duplicate or n higher than 2, the result herein given is the geometric mean of the several results obtained.

Test [2] concerns Sprague-Dawley rats, streptozotocin model. The test is described as follows: Rat model of diabetic neuropathy (STZ model), paw pressure test (Example 14). The class given is in vivo. The settings on record: Compound I-1 10 mg/kg p.o., gabapentin 100 mg/kg p.o., morphine 4 mg/kg s.c., mean±s.e.m.
The next test has as its system male Long Evans rats. The experiment in a line: Novel Object Recognition (NOR) test, MK-801-induced memory disruption (Example 10). The class given is in vivo, rat. The settings on record: for Recognition Index, Mean: 0 to 3 minute time bin. The source says: Objective. To assess the efficacy of compounds of the invention in reversing memory disruption induced by MK-801 using the Novel Object Recognition (NOR) test in male Long Evans rats. The NOR is a test of recognition learning and memory retrieval, which takes advantage of the spontaneous preference of rodents to investigate a novel object compared with a familiar one (Ennaceur and Delacour, 1988). […] The NOR test has been employed extensively to assess the potential cognitive-enhancing properties of novel test compounds. […] In the present study, a memory saving model was used to test the novel compound—MK-801 (Dizocilpine), an uncompetitive antagonist of the NMD A receptor was used to cause deficit of recognition memory. Compounds of the invention were evaluated through its efficacy in reversing memory impairment.
Animals. Adult male Long-Evans rats (275-299 gram at arrival from Envigo, Indianapolis, Ind.) were used in this study. Rats were placed in the experimental rooms and assigned unique identification numbers (tail marks). Rats were housed 2 per cage in polycarbonate cages with filter tops and acclimated for at least 7 days prior to testing. Animal room was maintained in a 12/12 h light/dark cycle (lights on at 07.00 EST), 22±1° C. and relative humidity at approximately 50%. Food and water were provided ad libitum. All animals were examined, handled and weighed prior to the study to assure adequate health and to minimize the non-specific stress associated with testing. Each animal was randomly assigned across the treatment groups. The experiments were conducted during the animal's light cycle phase.
MK-801 (0.1 mg/kg; Sigma-Aldrich) was dissolved in saline and injected IP 15 min prior to NOR training.
Galantamine (1 mg/kg; Tocris) was dissolved in saline and injected IP 15 minutes prior to training.
Compound I-1 (0.01, 0.1, and 1 mg/kg) was oral administrated 60 minutes prior to training. The dose volume was 4 ml/kg
Experimental procedures. NOR test was conducted in an open-field arena (40×40 cm) placed in a sound-attenuated room under dimmed lighting. Each rat was tested separately and care was taken to remove olfactory/taste cues by cleaning the arena and test objects with 70% alcohol between trials and rats. All training and testing trials were video-taped and scored by an observer blind to treatments.
On Days 1 and 2, rats were allowed to freely explore the arena (no objects inside) for a 5-minute habituation period. On Day 3 (training and testing day), rats were administered vehicle (saline), galantamine or compound solutions followed by MK-801 or vehicle (saline). After the pretreatment time, each animal was placed into the test arena in the presence of two identical objects. Each rat was placed in the arena facing the same direction at the same position, and the time spent actively exploring the objects during a 3-minute training period (T1) was recorded. The rat was returned to its home cage following training. NOR test (T2) was conducted 1 hours after T1. Each rat was placed back into the test arena in the presence of one familiar object and one novel object for 5 minutes, and the time spent exploring both objects was recorded during 0-1, 0-3 and 0-5 min time ranges. The presentation order and position of the objects (left/right) in T2 was randomized between rats to prevent bias from order or place preference.
Statistical Analysis. Data of NOR test (T2) were expressed as Recognition Index, which is defined as the ratio of the time spent exploring the novel object over the total time spent exploring both objects (Novel/(Familiar+Novel)×100%) during the test session. Data were analyzed by using one-way ANOVA followed by Fisher's LSD post hoc test on 0-1, 0-3 and 0-5 minute time range separately, with significance set at P<0.05. […] And then statistical outliers that fell above or below two standard deviations from the mean were removed from the final analysis. […]

Test [3] has as its system rats. The test is described as follows: Inflammatory pain: kaolin, gait score (Example 13). The class given is in vivo, rat. The settings on record: Indomethacin 30 mg/kg p.o. The method, then: Kaolin. Induction: In rats, unilateral arthritis was induced by an intra-articular injection of a 10% kaolin suspension into the knee joint of the right hind paw under gas anesthesia (3.5% isoflurane/3 L/min). Gait score: The gait score will be evaluated 3 h 30 min after kaolin administration by:
2: intermittent raising of the paw

Test [4] deals with rats. The experiment in a line: Inflammatory pain: carrageenan, paw pressure test (Example 13). It counts as in vivo, rat. The settings on record: Indomethacin 30 mg/kg p.o. (In general: The carrageenan paw model is a standard test of acute inflammation.)

By EC50 is commonly meant the midpoint of the concentration-response curve.

Turning to `FC(F)(F)c1n[nH]c(-c2cn3ncnc3c(Cc3ccccc3)n2)n1` [Compound I-15, 8-Benzyl-6-(3-(trifluoromethyl)-1H-1,2,4-triazol-5-yl)-[1,2,4]triazolo[1,5-a]pyrazine], the EC50 (on sGC enzyme; in test [1]) was 100 to 1000 nM in each case.
Take `NCC1(CC(=O)O)CCCCC1` [Gabapentin]: the “nociceptive threshold (paw pressure test)” value in test [2] (D18, 60 min post administration) is 272 ± 6.6 g; in test [2] (D18, 120 min post administration) it was 302 ± 17.7 g; in test [2] (D21, 120 min after dosing), 274 ± 19.2 g.
On to `COc1ccc2c3c1O[C@H]1C[C@@H](O)C=C[C@@]31CCN(C)C2` [Galantamine, reference compound], for which, in the test on male Long Evans rats (Galantamine (1 mg/kg IP) + MK-801), the “Recognition Index, Mean” value amounted to 66.2%.
Consider `COc1ccc2c(c1)c(CC(=O)O)c(C)n2C(=O)c1ccc(Cl)cc1` [Indomethacin, reference compound], for which the “% of activity vs. vehicle” value with rats [3] came to 58%; with rats [4] it was 100%.
On to `C[C@]12N[C@H](Cc3ccccc31)c1ccccc12` [MK-801, MK-801 (Dizocilpine), reference compound], for which, in the test with male Long Evans rats (Vehicle + MK-801 (0.1 mg/kg IP)), the “Recognition Index, Mean” value turned out to be 54.1%. Besides, the “effect on recognition memory (Recognition Index approaching chance level, 50%)” value with male Long Evans rats (MK-801 0.1 mg/kg IP, 0-1, 0-3 and 0-5 min) is recorded as “caused a strong memory deficit”.

For the origin of these results see US11731977B2, “SGC stimulators” (Cyclerion Therapeutics, Inc., priority 2016, dated 2023).
